Results published in US11254700B2, “GSK-3β inhibitors and use thereof in methods of treatment” (UNIVERSITY OF HAWAII, priority 2017, dated 2022).
Where “and” joins values, the source holds several entries; their conditions need not be identical. Equal values may be shown once. Entries after “also recorded” stand apart in the source; their conditions may differ. Read-outs that look alike come from different tables or passages of the source.

Columns and labels:
GSK-3β [1] = biological target: T1, GSK-3β (Homo sapiens, UniProt P49841); assay: Kinase luminescent assay (ADP-Glo), GSK-3β inhibition; format: biochemical
Method: Kinase Luminescent Assay.
Kinase inhibition was assessed with the ADP-Glo Kinase Assay. […] The reaction mixture was incubated for 1 hour at room temperature followed by the addition of the ADP-Glo′ reagents according to the manufacturer's protocol. The kinase inhibitor staurosporine was used at 1 μM as a reference control. Each data point was collected in quadruplicate of two independent experiments.
Target sequence in this assay (P49841 whole entry): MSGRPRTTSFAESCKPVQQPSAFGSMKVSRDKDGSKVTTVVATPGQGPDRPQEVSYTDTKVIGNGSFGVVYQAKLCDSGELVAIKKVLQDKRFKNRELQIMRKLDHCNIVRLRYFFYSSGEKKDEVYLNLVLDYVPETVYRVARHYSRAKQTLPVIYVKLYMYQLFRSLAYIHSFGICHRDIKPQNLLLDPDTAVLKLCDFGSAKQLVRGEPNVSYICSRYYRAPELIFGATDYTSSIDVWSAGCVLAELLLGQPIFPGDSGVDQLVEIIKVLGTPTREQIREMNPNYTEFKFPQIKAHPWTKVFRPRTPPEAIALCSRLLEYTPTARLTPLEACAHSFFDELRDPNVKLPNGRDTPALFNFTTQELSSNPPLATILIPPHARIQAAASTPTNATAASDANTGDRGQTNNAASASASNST

[2] = PAMPA passive membrane permeability
Method: Samples were run in quadruplicate.
Oral administration is noninvasive and is preferred for chronical diseases such as Alzheimer's disease and other CNS disorders. […] In the PAMPA model, the amount of target compounds diffused from a donor compartment to an acceptor compartment through a tri-layer phospholipid pre-coated membrane are measured to assess oral-absorption potential of drug candidates. In the present study, 1, 4, 9, 17, 21 and 30 were evaluated with the PAMPA assay.

GSK-3β [3] = biological target: T1, GSK-3β; assay: Kinase selectivity profile, GSK-3β; format: biochemical
Method: (§1) Kinase inhibition was assessed with the ADP-Glo Kinase Assay. For screening, 5 ng/μL of kinase was assayed in a reaction containing 50 ng/μL substrate, 40 mM Tris, pH 7.5, 20 mM MgCl2, 0.1 mg/mL bovine serum albumin, 50 μM dithiothreitol (DTT), 25 μM ATP, varying concentrations of test samples or 5% DMSO as vehicle. The reaction mixture was incubated for 1 hour at room temperature followed by the addition of the ADP-Glo′ reagents according to the manufacturer's protocol. The kinase inhibitor staurosporine was used at 1 μM as a reference control. Each data point was collected in quadruplicate of two independent experiments.
(§2) To assess kinase selectivity, compound 30 was screened against a panel of 41 human protein kinases of relevance to Alzheimer's disease and other CNS disorders (Martin, et al. (2013) Aging Res. Rev. 12:289-309). […] The exceptional selectivity of compound 30 to GSK-3β can effectively minimize risk of off-target effects.
Target sequence in this assay (P49841 whole entry): as above

GSK-3β [4] = biological target: T1, GSK-3β; assay: GSK-3β kinetics (Lineweaver-Burk), ATP or substrate GS2 competition; format: biochemical; details: 30 at 0 to 5 μM
Method: To study GSK-3β kinetics, a reaction solution contained 5 ng/μL kinase, 40 mM Tris, pH 7.5, 20 mM MgCl2, 0.1 mg/mL BSA, 50 μM DTT, and varying concentrations of ATP or substrate GS2 (residues 636-662 of human muscle glycogen synthase) versus test samples. The mixture was incubated for 5, 15, 30, and 60 minutes at room temperature followed by the addition of the ADP-Glo′ reagents according to the manufacturer's protocol. The Lineweaver-Burk representation is derived from the double reciprocal plotting of the enzyme kinetic data.
Under a constant concentration of the substrate GS2 (17 μM), ATP concentrations varied from 2 to 50 μM and 30 concentrations varied from 0 to 5 μM. […] In the second set of experiments under a constant concentration of ATP (10 μM), substrate GS2 concentrations varied from 8 to 66 μM and 30 concentrations varied from 0 to 5 μM. […] The enzyme inhibitory behaviors of 30 are similar to that of the parent compound 1 (Liang, et al. (2016) ACS Chem. Neurosci. 7:912-923) and therefore confirm that the new analogues are indeed substrate-competitive inhibitors of GSK-3β.
Target sequence in this assay (P49841 whole entry): as above

[5] = tested on: SH-SY5Y cells treated with Aβ42 oligomers; assay: Anti-Aβ42 neurotoxicity assay; format: cell-based, human
Method: (§3) Human neuroblastoma SH-SY5Y cell line (Sigma-Aldrich, Saint Louis, Mo.) was cultured in DMEM/F12 (v/v 1:1) media supplemented with 2 mM glutamine, 10% heat-inactivated fetal bovine serum (FBS) and 1% antibiotics including penicillin and streptomycin. After reaching 70-80% confluence, cells were then subcultured on poly-L-lysine plates with 10 μM retinoic acid in a reduced serum media (1% FBS) to promote neuronal maturation and differentiation as described (Agholme, et al. (2010) J. Alzheimer's Dis. 20: 1069-1082). Cell cultures were incubated at 37° C. in a fully humidified atmosphere containing 5% CO2.
The toxic oligomers of Aβ42 were prepared as described (Liang, et al. (2016) ACS Chem. Neurosci. 7:912-923). Briefly, lyophilized Aβ42 peptide was dissolved in hexafluoroisopropanol, dried under vacuum, and stored at −20° C. Immediately prior to use, the peptide residue was reconstituted in DMEM/F12 media to make a stock solution at 0.1 mM and incubated at 4° C. for 24 hours to form diffusible oligomers. Aβ42 oligomers at a final concentration of 10 μM were assayed for cell viability.
(§4) SH-SY5Y cells were seeded at a density of 3×10^5 cells/mL in a 96-well plate in DMEM/F12 media containing 10 μM retinoic acid and 1% FBS to suppress cell proliferation. Cells were incubated under regular culture conditions for attachment. After 24 hours of plating, the cells were pretreated with different concentrations of test samples or the 0.2% DMSO as a vehicle control for 1 hour and then co-incubated with 10 μM Aβ42 for 72 hours. After the experimental treatment, the cells were subject to a […]® 96 AQueous One Solution Cell Proliferation […] Assay according to the manufacturer's instruction. […] Each data point was collected in triplicate of two independent experiments.

[6] = tested on: panel of 41 human protein kinases; assay: Kinase selectivity profile, other kinases of the panel; format: biochemical; details: 5 μM
Method: as §1, §2

SH-SY5Y cells = assay: Cytotoxicity in SH-SY5Y cells; format: cell-based, human; details: 1000 μM
Method: as §3, §4

GSK-3α = GSK-3α (Homo sapiens, UniProt P49840); assay: Kinase selectivity profile, GSK-3α; format: biochemical
Method: as §1, §2

[7] = tested on: GSK-3β-mediated tau phosphorylation (pS396) in SH-SY5Y lysate; assay: Whole-cell lysate GSK-3β assay with human Tau pS396 ELISA; format: biochemical
Method: Whole-Cell Lysate GSK-3β Assay.
The assay procedure was followed as described (Liang, et al. (2016) ACS Chem. Neurosci. 7:912-923). SH-SY5Y cells were washed with phosphate-buffered saline (PBS) and lysed with cell extraction buffer containing 10 mM Tris, pH 7.4, 100 mM NaCl, 1 mM EDTA, 1 mM EGTA, 1 mM NaF, 20 mM Na4P2O7, 2 mM Na3VO4, 1% Triton X-100, 10% glycerol, 0.1% sodium dodecyl sulfate (SDS), 0.5% sodium deoxycholate, 1 mM phenylmethanesulfonyl fluoride (PMSF) and a protease inhibitor cocktail. Lysate was diluted with kinase buffer (40 mM Tris, pH 7.5, 20 mM MgCl2, 50 μM DTT, 400 μM ATP) to afford a concentration of 5 μg/μL of total protein, and split into aliquots. Recombinant human GSK-3β was fortified into lysate aliquots to a final concentration of 0.25% (wt/wt) of total protein. A lysate aliquot fortified with heat-inactivated GSK-3β was used as a negative control. The fortified lysate aliquots were incubated with test sample or 5% DMSO vehicle at 37° C. for 2 hours followed by ELISA analysis.
The quantitative determination of phosphorylated human tau at GSK-3β specific pS396 site was conducted by taking 50 μL diluted cell lysate and using a specific antibody against human tau [pS396] in a sandwich ELISA according to the manufacturer's protocol. Tau phosphorylation was quantified by measuring the absorbance at 450 nm in a microtiter plate reader. The analysis was collected in quadruplicate of two independent experiments.

GSK-3β [8] = biological target: T1, GSK-3β; details: background; cited from earlier work
Target sequence in this assay (P49841 whole entry, species assumed): as the sequence (P49841 whole entry) above

GSK-3α, sequence (P49840 whole entry): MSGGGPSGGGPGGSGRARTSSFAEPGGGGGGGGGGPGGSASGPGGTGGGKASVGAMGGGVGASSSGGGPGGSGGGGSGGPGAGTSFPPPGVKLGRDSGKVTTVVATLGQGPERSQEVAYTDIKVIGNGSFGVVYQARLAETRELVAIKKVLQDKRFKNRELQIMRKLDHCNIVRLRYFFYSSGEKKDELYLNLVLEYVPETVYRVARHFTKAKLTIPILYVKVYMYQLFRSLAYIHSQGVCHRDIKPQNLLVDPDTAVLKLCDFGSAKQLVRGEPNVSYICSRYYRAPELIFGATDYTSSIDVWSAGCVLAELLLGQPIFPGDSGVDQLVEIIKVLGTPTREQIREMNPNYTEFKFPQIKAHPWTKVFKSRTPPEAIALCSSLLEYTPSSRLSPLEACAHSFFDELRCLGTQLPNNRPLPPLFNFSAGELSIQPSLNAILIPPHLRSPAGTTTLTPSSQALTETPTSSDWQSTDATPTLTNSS

COc1ccc(-c2cc(=O)c3c(OC)c([C@@H]4O[C@H](C(=O)N[C@@H](C)C(F)(F)F)[C@@H](O)[C@H](O)[C@H]4O)c(OC)cc3o2)cc1OC [Compound 30, (2S,3S,4R,5R,6S)-6-(2-(3,4-Dimethoxyphenyl)-5,7-dimethoxy-4-oxo-4H-chromen-6-yl)-3,4,5-trihydroxy-N—((S)-1,1,1-trifluoropropan-2-yl)tetrahydro-2H-pyran-2-carboxamide]
LiPE (pIC50−CLogP) (GSK-3β [1]): > 4
IC50 (GSK-3β [1]; 25 μM ATP, 1 hour, room temperature, mean of quadruplicate of two experiments, read-out: IC50 against GSK-3β): < 20 µM and 0.59 µM
potency against GSK-3β relative to epimer 31 (GSK-3β [1]; vs 31): about 4 fold
increase of potency against GSK-3β relative to 1 (GSK-3β [1]; vs isoorientin 1): 310 fold
R (percent recovery) ([2]; 20 μM, pH 7.4, 5 hours): 30%
Pe ([2]; 20 μM, pH 7.4, 5 hours, room temperature, mean ±SD): 2.23 ± 0.21 ×10^−6 cm/s
Permeability classification ([2]; PAMPA): high (high (Pe > 1.5 × 10^−6 cm/s))
specificity for GSK-3β versus GSK-3α (GSK-3β [3]; 5 μM): 12.3 fold
inhibition at 5 µM (GSK-3β [3]; read-out: GSK-3β inhibition (decrease of kinase activity)): 92.3%
competition with substrate GS2 (GSK-3β [4]; ATP 10 μM, GS2 8 to 66 μM): competed with the substrate GS2
competition with ATP (GSK-3β [4]; GS2 17 μM, ATP 2 to 50 μM): no competition between ATP and 30
protection against Aβ42 neurotoxicity ([5]; 1.25 to 20 μM, 10 μM Aβ42, 72 hours): neuroprotection in a dose-dependent manner; also recorded: alleviates Aβ42 induced neurotoxicity
improvement in effectiveness compared to parent compound ([5]; 30 at 10 μM versus 1 at 200 μM): ~20 fold
EC50 ([5]; Homo sapiens, SH-SY5Y, 1 hour pretreatment, 10 μM Aβ42, 72 hours, read-out: neuroprotective potency EC50): 8.7 µM
effective dose, morphological protection from Aβ42 intoxication ([5]; morphological observations): 10 μM
increase of neuroprotective potency relative to 1 ([5]; vs parent compound 1): 5.4 fold
inhibition of 40 out of 41 kinases of the test panel [6]: only marginal or weak inhibition
cytotoxicity (SH-SY5Y cells): no observable cytotoxicity
inhibition at 5 µM (GSK-3α): 7.5%
inhibition of tau hyperphosphorylation compared to TDZD-8 ([7]; 10 μM, TDZD-8 at the same concentration): better inhibition against tau hyperphosphorylation
GSK-3β-mediated tau hyperphosphorylation at pS396 ([7]; 2, 10 and 50 μM, 2 hours, 37° C., lysate with 0.25% GSK-3β): effectively attenuated tau hyperphosphorylation in a dose-dependent manner; also recorded: attenuate GSK-3β-mediated tau phosphorylation

O=C([O-])[O-].[Li+].[Li+] [lithium carbonate]
IC50 (GSK-3β [8]): 2000 µM
